# Measured values: patent publication US20030092126A1, “Fragments of leptin (ob protein)” (SmithKline Beecham p.l.c., priority 1996, published 2003)
# B1: m-Leptin: murine leptin (protein, UniProt P41160 22-167, looked up)
# Leptin: VPIQKVQDDTKTLIKTIVTRINDISHTQSVSAKQRVTGLDFIPGLHPILSLSKMDQTLAVYQQVLTSLPSQNVLQIANDLENLRDLLHLLAFSKSCSLPQTSGLQKPESLDGVLEASLYSTEVVALSRLQGSLQDILQQLDVSPEC
# Test system: SD rats
# Experiment: Effect of leptin fragments given intracerebroventricularly on food intake and body weight in SD rats
# Format: in vivo
# Settings: single icv injection, measured 24 h later, n = 8, * P < 0.05
# Procedure: Effect of Leptin Fragments on Food Intake in SD Rats
# Rats are pre-treated with Synulox (0.1 ml/100 g) approx 1 hour before anaesthesia, and then anaesthetised with Domitor (0.04 ml/100 g i.m.) and sublimase (0.9 ml/100 g i.p.) Each rat has a cannula implanted stereotaxically into the lateral brain ventricle under sterile conditions. Anaesthesia is then reversed using Antisedan and Nubain (50% v/v :50% v/v 0.02 m1/100 g) I.P. After surgery each rat receives 0.05 ml Zenecarp.
# Experiment 1: Following surgery the body weight of each animal was monitored daily throughout the procedure.
# In order to verify that the cannula was in the lateral ventricle, Angiotensin II (100 ng/5 μl ) was injected icv and water intake was monitored for 5 min after injection.
# 24 hour food intake was measured on day 5 and 6 after surgery. On day 6 the animals were divided according to their body weight into 3 groups (a,b and c, 8 rats per group) and then fasted overnight. On the day of experiment (day 7) rats were injected icv as follows::
# group a-vehicle (PBS, phosphate buffer solution, 5 μl/rat);
# group b-human leptin (11.5 μg/5 μl); and
# group c-leptin tryptic digest (30 μg/5 μl).
# A known quantity of food in excess of the daily requirement was supplied to the rats immediately after the icv injection procedure was completed. Food intake and body weight were then measured 24h later.
# Experiment 2: A separate group of animals was prepared exactly as described above but on the day of experiment after overnight fast, groups of rats were injected as follows:
# group a-vehicle (PBS 5 μl /rat);
# group b-human leptin ([…]);
# group c-murine leptin (10 μg/5 μl);
# group d-ob 57-74, sequence VTGLDFIPGLHPILTLSK (3.33 μg/5 μl);
# Again a pre-weight quantity of food, in excess of the daily requirement, was re-given following the injection; change in body weight and the quantity of food consumed were recorded 24h later.
# [1] = Experiment 2, Table 2, overnight fast, h-leptin 8.75 μg/rat, m-leptin 10 μg/rat, fragment 57-74 3.33 μg/rat
# [2] = Experiment 1, Table 1, overnight fast, h-leptin 11.5 μg/rat, tryptic digest 30 μg/rat
molecule,measurement,setting,value
"VTGLDFIPGLHPILTLSK [Leptin fragment 57-74, fragment of human ob protein, amino acid residues 57 to 74]",24 h food intake,[1],33.6 ± 0.9 g
same,Bwt Change,[1],26.8 ± 1.2* g/24 h
h-Leptin: human leptin (human ob protein),24 h food intake,[2],30.62 ± 1.5* g
same,Bwt Change,[2],22.88 ± 2.05* g/24 h
same,24 h food intake,[1],33.7 ± 1.6 g
same,Bwt Change,[1],24.5 ± 3.7 g/24 h
B1,24 h food intake,[1],31.3 ± 1.7 g
same,Bwt Change,[1],23.7 ± 2.18* g/24 h
